The values below come from ChEMBL document CHEMBL1201862, “PubChem BioAssay data set” (2004).

Among the test systems are ACHN; BT-549; CAKI-1; COLO 205; EKVX; HCC 2998; HCT-116; HOP-92; LOX IMVI; M14; MDA-MB-435; NCI-H226; NCI-H23; NCI-H522; NCI/ADR-RES; OVCAR-8; SF-539; SNB-75; T47D; UO-31.
What all share (experiment): NCI tumour cell line growth inhibition, 48 h

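Five compound concentrations were applied to cells in 96-well plates for 48 hours; endpoints were derived by simple linear interpolation of the resulting dose-response curve. Here, GI50 denotes the concentration required for 50% inhibition of growth.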 The source made the active and inactive calls. Rule as the data show it: active = GI50 up to about 1.1 µM and inactive = higher.

For the compound `O=C1c2ccccc2C(=O)N1CCCSc1ccccc1`, the GI50 was > 100 µM (inactive) with ACHN; > 100 µM (inactive) in the experiment with BT-549; 93.1 µM (inactive) in the experiment with CAKI-1; 66.1 µM (inactive) in the experiment with COLO 205; 57.1 µM (inactive) in the experiment on EKVX; 25.1 µM (inactive) in the experiment with HCC 2998. Moreover, the GI50 in the experiment on HCT-116 is 94.2 µM (inactive); in the experiment with HOP-92 it was > 100 µM (inactive); with LOX IMVI, > 100 µM (inactive); in the experiment on M14, 66.7 µM (inactive); in the experiment on MDA-MB-435, > 100 µM (inactive); in the experiment on NCI-H226, > 100 µM (inactive). Further, the GI50 was 86.7 µM (inactive) in the experiment on NCI-H23; 66.8 µM (inactive) in the experiment on NCI-H522; 52 µM (inactive) in the experiment with NCI/ADR-RES; > 100 µM (inactive) in the experiment on OVCAR-8; > 100 µM (inactive) in the experiment on SF-539; 64.7 µM (inactive) with SNB-75. The GI50 is 31.3 µM (inactive) in the experiment with T47D and 60.5 µM (inactive) with UO-31.

Regarding `c1cc2c(cc1NC1=NCCO1)CCCC2`, the GI50 with ACHN was 7.59 µM (inactive); in the experiment with BT-549, 13.7 µM (inactive); with CAKI-1, 18.6 µM (inactive); in the experiment on COLO 205, 1.84 µM (inactive); in the experiment with EKVX, 8.04 µM (inactive); in the experiment on HCC 2998, 2.55 µM (inactive). For the same compound, the GI50 in the experiment with HCT-116 was 2.76 µM (inactive); in the experiment on HOP-92, 2.86 µM (inactive); in the experiment on LOX IMVI, 3.13 µM (inactive); in the experiment with M14 it was 2.88 µM (inactive); with MDA-MB-435, 1.57 µM (inactive); in the experiment with NCI-H226, 3.37 µM (inactive). In addition, the GI50 in the experiment with NCI-H23 is 4.09 µM (inactive); with NCI-H522 it was 3.52 µM (inactive); in the experiment with NCI/ADR-RES, 2.18 µM (inactive); in the experiment with OVCAR-8 it was 3.66 µM (inactive); with SF-539, 2.74 µM (inactive); with SNB-75 it was 2.08 µM (inactive). In addition, the GI50 in the experiment with T47D was 10.6 µM (inactive); with UO-31 it was 6.97 µM (inactive).

As for `C/C=C(\C)C(O)C(C)C(O)C/C=C(C)/C=C(\C)C/C(C)=C/C/C=C(\C)C(O)C(C)c1ccc(CCC)c(=O)o1` (stereo not given), the GI50 in the experiment with ACHN is < 0.01 µM (active); with BT-549, 11.8 µM (inactive); in the experiment with CAKI-1, 12.9 µM (inactive); in the experiment on COLO 205, 3.78 µM (inactive); with EKVX it was 17.5 µM (inactive); with HCC 2998, 12.9 µM (inactive). Further, the GI50 in the experiment with HCT-116 is 0.544 µM (active); in the experiment on HOP-92 it was 16.6 µM (inactive); in the experiment with LOX IMVI, 6.68 µM (inactive); in the experiment on M14, 14.9 µM (inactive); in the experiment on MDA-MB-435 it was 9.12 µM (inactive); in the experiment with NCI-H226 it was 21.1 µM (inactive). Moreover, the GI50 in the experiment on NCI-H23 is < 0.01 µM (active); in the experiment on NCI-H522, 2 µM (inactive); in the experiment on NCI/ADR-RES, 2.8 µM (inactive); in the experiment with OVCAR-8, 12.9 µM (inactive); in the experiment with SF-539, 14.1 µM (inactive); with SNB-75, 10.8 µM (inactive). The GI50 is 12.1 µM (inactive) in the experiment on T47D and 7.82 µM (inactive) with UO-31.

Take `CCCCCCCCCCCCCCCCCCNc1ccn(C2OC(CO)C(O)C2O)c(=O)n1` (stereo not given): the GI50 was > 100 µM (inactive) with ACHN; > 100 µM (inactive) with BT-549; > 100 µM (inactive) with CAKI-1; 38 µM (inactive) in the experiment on COLO 205; > 100 µM (inactive) in the experiment on EKVX; 50.5 µM (inactive) in the experiment on HCC 2998. Moreover, the GI50 in the experiment on HCT-116 is > 100 µM (inactive); in the experiment on HOP-92 it was > 100 µM (inactive); in the experiment with LOX IMVI it was > 62.8 µM (inactive); in the experiment with M14, 55.5 µM (inactive); in the experiment on MDA-MB-435 it was > 100 µM (inactive); with NCI-H226, > 100 µM (inactive). In addition, the GI50 was > 100 µM (inactive) in the experiment with NCI-H23; 19.8 µM (inactive) with NCI-H522; > 100 µM (inactive) with NCI/ADR-RES; > 100 µM (inactive) in the experiment with OVCAR-8; > 100 µM (inactive) with SF-539; 29.9 µM (inactive) in the experiment on SNB-75. The values for the GI50 in the experiment on T47D and in the experiment with UO-31 were > 40.7 µM (inactive) and > 100 µM (inactive), respectively.

Regarding `O=C(O)c1nc2ccccc2nc1Nc1ccc(Cl)c(Cl)c1`, the GI50 is 29.5 µM (inactive) with ACHN; 16.1 µM (inactive) with BT-549; 33 µM (inactive) in the experiment with CAKI-1; 23.5 µM (inactive) with COLO 205; 33.1 µM (inactive) in the experiment on EKVX; 18.2 µM (inactive) in the experiment on HCC 2998. Further, the GI50 in the experiment on HCT-116 was 22.5 µM (inactive); in the experiment on HOP-92, 16.1 µM (inactive); in the experiment with LOX IMVI, 28.8 µM (inactive); with M14, 24.5 µM (inactive); with MDA-MB-435, 28.4 µM (inactive); in the experiment with NCI-H226 it was 43.4 µM (inactive). For the same compound, the GI50 in the experiment on NCI-H23 was 17.7 µM (inactive); in the experiment on NCI-H522, 17 µM (inactive); in the experiment with NCI/ADR-RES, 27.9 µM (inactive); in the experiment on OVCAR-8, 41.1 µM (inactive); in the experiment with SF-539 it was 19.9 µM (inactive); in the experiment with SNB-75, 56.5 µM (inactive). Moreover, the GI50 was 17.7 µM (inactive) in the experiment with T47D and 15.6 µM (inactive) in the experiment with UO-31.

Regarding `C/C=C/C=C/C1=NN(c2cccc(S(=O)(=O)O)c2)C2(C1)C(Cl)C(=O)N2c1nc2ccccc2s1` (stereo not given), the GI50 in the experiment on ACHN is 15.4 µM (inactive); in the experiment with BT-549, 17.7 µM (inactive); in the experiment on CAKI-1 it was 8.24 µM (inactive); with COLO 205, 18.3 µM (inactive); in the experiment with EKVX, 16.4 µM (inactive); with HCC 2998 it was 16.9 µM (inactive). Besides, the GI50 was 14.4 µM (inactive) with HCT-116; 24.5 µM (inactive) in the experiment on HOP-92; 7.85 µM (inactive) with LOX IMVI; 15.1 µM (inactive) in the experiment with M14; 13.4 µM (inactive) with MDA-MB-435; 14.3 µM (inactive) in the experiment on NCI-H226. Besides, the GI50 in the experiment on NCI-H23 was 15.1 µM (inactive); in the experiment with NCI-H522 it was 4.22 µM (inactive); in the experiment with NCI/ADR-RES it was 27.2 µM (inactive); in the experiment with OVCAR-8 it was 22 µM (inactive); in the experiment with SF-539, 12.6 µM (inactive); with SNB-75 it was 12.4 µM (inactive). In addition, the GI50 in the experiment with T47D is 4.6 µM (inactive); in the experiment on UO-31, 2 µM (inactive).

Consider `CCCCn1c(C)c2c(c1C)C(=O)N(CC(O)CN1CCc3ccccc3C1)C2=O` (stereo not given), for which the GI50 with ACHN was 36.7 µM (inactive); with BT-549, > 100 µM (inactive); in the experiment on CAKI-1 it was 80.2 µM (inactive); in the experiment with COLO 205, 37.8 µM (inactive); in the experiment on EKVX it was 12.3 µM (inactive); with HCC 2998 it was 39.8 µM (inactive). The GI50 is 47.9 µM (inactive) in the experiment on HCT-116; > 100 µM (inactive) with HOP-92; 49.7 µM (inactive) with LOX IMVI; 40.1 µM (inactive) in the experiment on M14; 60.1 µM (inactive) in the experiment with MDA-MB-435; 68.7 µM (inactive) with NCI-H226. Besides, the GI50 in the experiment on NCI-H23 is 56.5 µM (inactive); in the experiment on NCI-H522, > 100 µM (inactive); in the experiment on NCI/ADR-RES, 59.7 µM (inactive); in the experiment with OVCAR-8 it was > 100 µM (inactive); in the experiment with SF-539, 69.8 µM (inactive); in the experiment with SNB-75, > 100 µM (inactive). The GI50 in the experiment on T47D is 35.6 µM (inactive); with UO-31 it was 59 µM (inactive).

Turning to `CCC/C=C/C=C/C1CC(O)C(O)C(=O)C1CO` (stereo not given), the GI50 in the experiment with ACHN, with BT-549, in the experiment on CAKI-1, in the experiment on COLO 205, in the experiment with EKVX and with HCC 2998 was > 100 µM (inactive) in each case. For the same compound, the GI50 in the experiment on HCT-116, in the experiment on HOP-92, in the experiment on LOX IMVI, with M14, with MDA-MB-435 and with NCI-H226 was > 100 µM (inactive) each time. Moreover, the GI50 in the experiment with NCI-H23 is > 100 µM (inactive); with NCI-H522, 55.2 µM (inactive); in the experiment with NCI/ADR-RES it was > 100 µM (inactive); with OVCAR-8, > 100 µM (inactive); in the experiment on SF-539, > 100 µM (inactive); with SNB-75, > 100 µM (inactive). Besides, the GI50 with T47D and in the experiment on UO-31 was > 100 µM (inactive) in each case.

On to `COc1ccc(/C=C(/C(=O)c2ccc(Cl)cc2)N2C=CC=CC2=C(C#N)C#N)cc1OC`, for which the GI50 in the experiment with ACHN was 3.31 µM (inactive); in the experiment on BT-549 it was 7.85 µM (inactive); in the experiment on CAKI-1, 1.31 µM (inactive); in the experiment on COLO 205 it was 1.58 µM (inactive); in the experiment on EKVX, 2.75 µM (inactive); in the experiment on HCC 2998 it was 1.99 µM (inactive). Besides, the GI50 in the experiment on HCT-116 was 2.06 µM (inactive); in the experiment with HOP-92, 3.51 µM (inactive); in the experiment with LOX IMVI, 3.39 µM (inactive); in the experiment on M14, 3.7 µM (inactive); in the experiment on MDA-MB-435, 3.89 µM (inactive); with NCI-H226, 17.8 µM (inactive). Further, the GI50 in the experiment with NCI-H23 is 11.5 µM (inactive); in the experiment with NCI-H522 it was 0.243 µM (active); with NCI/ADR-RES, 10.4 µM (inactive); in the experiment with OVCAR-8 it was 4.27 µM (inactive); with SF-539, 3.92 µM (inactive); in the experiment on SNB-75, 6.62 µM (inactive). In addition, the GI50 with T47D was 4.06 µM (inactive); with UO-31 it was 1.5 µM (inactive).

`COC(=O)C1C2OC(C)(C)OC2CN1S(=O)(=O)c1ccc(C)cc1` (stereo not given): the GI50 in the experiment with ACHN was > 100 µM (inactive); in the experiment on BT-549, > 100 µM (inactive); with CAKI-1 it was > 100 µM (inactive); in the experiment with COLO 205, > 100 µM (inactive); with EKVX it was 8.04 µM (inactive); with HCC 2998, > 100 µM (inactive). In addition, the GI50 in the experiment with HCT-116 was > 100 µM (inactive); in the experiment on HOP-92, > 100 µM (inactive); with LOX IMVI, > 100 µM (inactive); in the experiment on M14, > 100 µM (inactive); in the experiment on MDA-MB-435, > 100 µM (inactive); in the experiment on NCI-H226, 0.0527 µM (active). The GI50 is > 100 µM (inactive) in the experiment with NCI-H23; > 100 µM (inactive) in the experiment with NCI-H522; > 100 µM (inactive) in the experiment with NCI/ADR-RES; > 100 µM (inactive) in the experiment with OVCAR-8; > 100 µM (inactive) in the experiment with SF-539; 10.9 µM (inactive) in the experiment on SNB-75. Also, the GI50 in the experiment on T47D and in the experiment on UO-31 was > 100 µM (inactive) in each case.
